Assay results taken from PMC7047272 (ACS Central Science, 2020).

How the values were obtained:
[1] = molecular target: β5 of human 20S constitutive proteasome (CP) (Homo sapiens, UniProt P28074); experiment: Fluorogenic substrate hydrolysis, chymotrypsin-like activity; format: biochemical
[2] = molecular target: β5i of human 20S immunoproteasome (IP) (Homo sapiens, UniProt P28062); experiment: as above; format: biochemical
[3] = molecular target: β5 of mouse 20S constitutive proteasome (CP) (Mus musculus, UniProt O55234); experiment: as above; format: biochemical
[4] = molecular target: β5i of mouse 20S immunoproteasome (IP) (Mus musculus, UniProt P28063); experiment: biochemical
[5] = molecular target: β2 of human 20S constitutive proteasome (CP) (Homo sapiens, UniProt Q99436); experiment: Fluorogenic substrate hydrolysis, trypsin-like activity; format: biochemical
[6] = molecular target: β2i of human 20S immunoproteasome (IP) (Homo sapiens, UniProt P40306); experiment: as above; format: biochemical
[7] = test system: chymotrypsin-like activity in live LCL721.145 cells (containing immunoproteasome); format: cell-based, human; settings: MeO-Suc-GLF-AMC, up to 1 μM
[8] = molecular target: β2 of mouse 20S constitutive proteasome (CP) (Mus musculus, UniProt P70195); format: biochemical; settings: at concentrations up to 1 μM
[9] = molecular target: β2i of mouse 20S immunoproteasome (IP) (Mus musculus, UniProt O35955); experiment: biochemical; format: biochemical
[10] = molecular target: β1i (LMP2) of mouse 20S immunoproteasome (IP) (Mus musculus, UniProt P28076); experiment: biochemical

| SMILES | IC50 [1] [nM] | IC50 [2] [nM] | IC50 [3] [nM] | IC50 [4] [nM] | IC50 [5] [nM] | IC50 [6] [nM] | inhibition of chymotrypsin-like activity in live cells (cell permeability) [7] | effect on β2 of the constitutive proteasome [8] | IC50 [9] [nM] | selectivity β2/β2i [9] | IC50 [10] [nM] |
| --- | --- | --- | --- | --- | --- | --- | --- | --- | --- | --- | --- |
| CCCCCCC/C=C/C=C/C(=O)N[C@H](C(=O)N[C@H]1CCCCNC(=O)/C=C/[C@H](C)NC1=O)[C@@H](C)O [LumA, luminmycin A] | 39 | 1600 | 32 | 8.9 | 260 | 170 | inactive |  |  |  |  |
| CCCCCCC/C=C/C=C/C(=O)N[C@H](C(=O)N[C@H]1C[C@@H](O)CCNC(=O)/C=C/[C@H](C)NC1=O)[C@@H](C)O [GlbA, glidobactin A] | 3.6 | 25 | 0.65 | 1.1 | 15 | 42 | inactive | almost unaffected | 1.4 | > 714 | 250 |
